Reference: patent US8802597B2, “Herbicidal pyrimidines” (E I du Pont de Nemours and Company, priority 2003, dated 2014)

What was measured:
Assay in all cases: Test G pre/postemergence
Type in all cases: in vivo
[1] = system: common chickweed (Stellaria media)
From the text: (§1) Seeds or nutlets of plant species selected from bermudagrass (Cynodon dactylon), Surinam grass (Brachiaria decumbens), large crabgrass (Digitaria sanguinalis), green foxtail (Setaria viridis), goosegrass (Eleusine indica), johnsongrass (Sorghum halepense), kochia (Kochia scoparia), pitted morningglory (Ipomoea lacunosa), purple nutsedge (Cyperus rotundus), common ragweed (Ambrosia elatior), black mustard (Brassica nigra), guineagrass (Panicum maximum), dallisgrass (Paspalum dilatatum), barnyardgrass (Echinochloa crus-galli), southern sandbur (Cenchrus echinatus), common sowthistle (Sonchus oleraceous), prickly sida (Sida spinosa), Italian ryegrass (Lolium multiflorum), common purslane (Portulaca oleracea), broadleaf signalgrass (Brachiaria platyphylla), common groundsel (Senecio vulgaris), common chickweed (Stellaria media), tropical spiderwort (Commelina benghalensis), annual bluegrass (Poa annua), downy bromegrass (Bromus tectorum), itchgrass (Rottboellia cochinchinensis), quackgrass (Elytrigia repens), Canada horseweed (Conyza canadensis), field bindweed (Convolvulus arvensis), spanishneedles (Bidens bipinnata), common mallow (Malva sylvestris), and Russian thistle (Salsola kali) were planted and treated preemergence with test chemicals formulated in a non-phytotoxic solvent mixture which included a surfactant.
(§2) At the same time, plants selected from these weed species were treated with postemergence applications of some of the test chemicals formulated in the same manner. Plants ranged in height from 2 to 18 cm (1- to 4-leaf stage) for postemergence treatments. Treated plants and controls were maintained in a greenhouse for 12 to 21 days, after which time all species were compared to controls and visually evaluated.
(§3) Plant response ratings, summarized in Table G, are based on a scale of 0 to 100 where 0 is no effect and 100 is complete control. A dash (-) response means no test result.

[2] = system: broadleaf signalgrass (Brachiaria platyphylla)
From the text: as §1, §2, §3

[3] = system: green foxtail (Setaria viridis)
From the text: as §1, §2, §3

[4] = system: quackgrass (Elytrigia repens)
From the text: as §1, §2, §3

[5] = system: southern sandbur (Cenchrus echinatus)
From the text: as §1, §2, §3

[6] = system: common mallow (Malva sylvestris)
From the text: as §1, §2, §3

[7] = system: goosegrass (Eleusine indica)
From the text: as §1, §2, §3

[8] = system: pitted morningglory (Ipomoea lacunosa)
From the text: as §1, §2, §3

[9] = system: itchgrass (Rottboellia cochinchinensis)
From the text: as §1, §2, §3

[10] = system: large crabgrass (Digitaria sanguinalis)
From the text: as §1, §2, §3

[11] = system: common ragweed (Ambrosia elatior)
From the text: as §1, §2, §3

[12] = system: black mustard (Brassica nigra)
From the text: as §1, §2, §3

[13] = system: dallisgrass (Paspalum dilatatum)
From the text: as §1, §2, §3

[14] = system: prickly sida (Sida spinosa)
From the text: as §1, §2, §3

[15] = Postemergence, 250 g ai/ha, scale 0 to 100
[16] = Postemergence, 125 g ai/ha, scale 0 to 100
[17] = Postemergence, 375 g ai/ha, scale 0 to 100
[18] = Preemergence, 62 g ai/ha, scale 0-100
[19] = Preemergence, 125 g ai/ha, scale 0-100
[20] = Preemergence, 250 g ai/ha, scale 0-100
[21] = Preemergence, 500 g ai/ha, scale 0 to 100
[22] = Preemergence, 375 g ai/ha, scale 0 to 100
[23] = Postemergence, 500 g ai/ha, scale 0 to 100
[24] = Postemergence, 62 g ai/ha, scale 0 to 100
[25] = Preemergence, 500 g ai/ha, scale 0-100

CCOC(=O)c1nc(C2CC2)nc(N)c1Br [Compound 1, ethyl 6-amino-5-bromo-2-cyclopropyl-4-pyrimidinecarboxylate]
Plant response rating, Chickweed [1, 15]: 95
Plant response rating, Chickweed [1, 16]: 95
Plant response rating, Chickweed [1, 17]: 100
Plant response rating, Chickweed [1, 18]: 70
Plant response rating, Chickweed [1, 19]: 95
Plant response rating, Chickweed [1, 20]: 95
Plant response rating, Chickweed [1, 21]: 100
Plant response rating, Chickweed [1, 22]: 100
Plant response rating, Signalgrass [2, 15]: 75
Plant response rating, Signalgrass [2, 23]: 85
Plant response rating, Signalgrass [2, 24]: 20
Plant response rating, Signalgrass [2, 16]: 60
Plant response rating, Signalgrass [2, 17]: 75
Plant response rating, Signalgrass [2, 18]: 10
Plant response rating, Signalgrass [2, 19]: 70
Plant response rating, Signalgrass [2, 20]: 75
Plant response rating, Signalgrass [2, 25]: 75
Plant response rating, Signalgrass [2, 21]: 95
Plant response rating, Foxtail, Green [3, 15]: 30
Plant response rating, Foxtail, Green [3, 23]: 60
Plant response rating, Foxtail, Green [3, 24]: 10
Plant response rating, Foxtail, Green [3, 16]: 20
Plant response rating, Foxtail, Green [3, 17]: 50
Plant response rating, Foxtail, Green [3, 18]: 10
Plant response rating, Foxtail, Green [3, 19]: 10
Plant response rating, Foxtail, Green [3, 20]: 50
Plant response rating, Foxtail, Green [3, 21]: 90
Plant response rating, Foxtail, Green [3, 22]: 90
Plant response rating, Quackgrass [4, 15]: 60
Plant response rating, Quackgrass [4, 23]: 70
Plant response rating, Quackgrass [4, 24]: 10
Plant response rating, Quackgrass [4, 16]: 30
Plant response rating, Quackgrass [4, 17]: 70
Plant response rating, Quackgrass [4, 18]: 10
Plant response rating, Quackgrass [4, 19]: 60
Plant response rating, Quackgrass [4, 20]: 90
Plant response rating, Quackgrass [4, 25]: 95
Plant response rating, Quackgrass [4, 21]: 95
Plant response rating, Sandbur [5, 15]: 95
Plant response rating, Sandbur [5, 23]: 95
Plant response rating, Sandbur [5, 24]: 30
Plant response rating, Sandbur [5, 16]: 60
Plant response rating, Sandbur [5, 17]: 95
Plant response rating, Sandbur [5, 18]: 0
Plant response rating, Sandbur [5, 19]: 30
Plant response rating, Sandbur [5, 20]: 70
Plant response rating, Sandbur [5, 25]: 85
Plant response rating, Sandbur [5, 21]: 85
Plant response rating, Mallow [6, 15]: 70
Plant response rating, Mallow [6, 23]: 95
Plant response rating, Mallow [6, 24]: 50
Plant response rating, Mallow [6, 16]: 60
Plant response rating, Mallow [6, 17]: 95
Plant response rating, Mallow [6, 18]: 50
Plant response rating, Mallow [6, 19]: 80
Plant response rating, Mallow [6, 20]: 95
Plant response rating, Mallow [6, 25]: 95
Plant response rating, Mallow [6, 21]: 95
Plant response rating, Goosegrass [7, 15]: 60
Plant response rating, Goosegrass [7, 23]: 60
Plant response rating, Goosegrass [7, 24]: 20
Plant response rating, Goosegrass [7, 16]: 60
Plant response rating, Goosegrass [7, 17]: 60
Plant response rating, Goosegrass [7, 18]: 0
Plant response rating, Goosegrass [7, 20]: 50
Plant response rating, Goosegrass [7, 21]: 50
Plant response rating, Goosegrass [7, 22]: 50
Plant response rating, Morningglory [8, 15]: 100
Plant response rating, Morningglory [8, 23]: 100
Plant response rating, Morningglory [8, 24]: 100
Plant response rating, Morningglory [8, 16]: 100
Plant response rating, Morningglory [8, 17]: 100
Plant response rating, Morningglory [8, 18]: 95
Plant response rating, Morningglory [8, 19]: 100
Plant response rating, Morningglory [8, 20]: 100
Plant response rating, Morningglory [8, 25]: 100
Plant response rating, Morningglory [8, 21]: 100
Plant response rating, Itchgrass [9, 15]: 60
Plant response rating, Itchgrass [9, 23]: 70
Plant response rating, Itchgrass [9, 24]: 20
Plant response rating, Itchgrass [9, 16]: 40
Plant response rating, Itchgrass [9, 17]: 60
Plant response rating, Itchgrass [9, 18]: 10
Plant response rating, Itchgrass [9, 19]: 30
Plant response rating, Itchgrass [9, 20]: 80
Plant response rating, Itchgrass [9, 25]: 85
Plant response rating, Itchgrass [9, 21]: 90
Plant response rating, Crabgrass, Large [10, 15]: 70
Plant response rating, Crabgrass, Large [10, 23]: 70
Plant response rating, Crabgrass, Large [10, 24]: 50
Plant response rating, Crabgrass, Large [10, 16]: 60
Plant response rating, Crabgrass, Large [10, 17]: 70
Plant response rating, Crabgrass, Large [10, 18]: 20
Plant response rating, Crabgrass, Large [10, 19]: 30
Plant response rating, Crabgrass, Large [10, 20]: 90
Plant response rating, Crabgrass, Large [10, 21]: 90
Plant response rating, Crabgrass, Large [10, 22]: 90
Plant response rating, Ragweed [11, 15]: 95
Plant response rating, Ragweed [11, 23]: 100
Plant response rating, Ragweed [11, 24]: 75
Plant response rating, Ragweed [11, 16]: 95
Plant response rating, Ragweed [11, 17]: 100
Plant response rating, Ragweed [11, 18]: 50
Plant response rating, Ragweed [11, 19]: 95
Plant response rating, Ragweed [11, 20]: 100
Plant response rating, Ragweed [11, 25]: 100
Plant response rating, Ragweed [11, 21]: 100
Plant response rating, Black Mustard [12, 15]: 75
Plant response rating, Black Mustard [12, 23]: 75
Plant response rating, Black Mustard [12, 24]: 60
Plant response rating, Black Mustard [12, 16]: 75
Plant response rating, Black Mustard [12, 17]: 75
Plant response rating, Black Mustard [12, 18]: 30
Plant response rating, Black Mustard [12, 19]: 80
Plant response rating, Black Mustard [12, 20]: 85
Plant response rating, Black Mustard [12, 21]: 100
Plant response rating, Black Mustard [12, 22]: 100
Plant response rating, Dallisgrass [13, 15]: 30
Plant response rating, Dallisgrass [13, 23]: 30
Plant response rating, Dallisgrass [13, 24]: 10
Plant response rating, Dallisgrass [13, 16]: 20
Plant response rating, Dallisgrass [13, 17]: 30
Plant response rating, Dallisgrass [13, 18]: 0
Plant response rating, Dallisgrass [13, 19]: 10
Plant response rating, Dallisgrass [13, 20]: 50
Plant response rating, Dallisgrass [13, 21]: 95
Plant response rating, Dallisgrass [13, 22]: 95
Plant response rating, Prickly Sida [14, 15]: 90
Plant response rating, Prickly Sida [14, 23]: 95
Plant response rating, Prickly Sida [14, 24]: 70
Plant response rating, Prickly Sida [14, 16]: 70
Plant response rating, Prickly Sida [14, 17]: 95
Plant response rating, Prickly Sida [14, 18]: 70
Plant response rating, Prickly Sida [14, 19]: 100
Plant response rating, Prickly Sida [14, 20]: 100
Plant response rating, Prickly Sida [14, 25]: 100
Plant response rating, Prickly Sida [14, 21]: 100
